Laboratory results published in US10301257B2, “Use of acylsulfonamides for improving plant yield” (BAYER INTELLECTUAL PROPERTY GMBH, priority 2011, dated 2019).

What was measured:
Type in all cases: in vivo
[1] = tested on: winter wheat; assay: Field trial: grain yield of winter wheat, preemergence application of Cyprosulfamide
Excerpt: (§1) The trials have been carried out under natural field conditions (plot trials, 10 square meter plots, 2-4 replications).
(§2) The applications have been done with seed treatment, pre- or post-emergence treatments straight (alone, 1 application) or sequential treatments e.g. seed treatment followed by pre-emergence and/or post-emergence spray applications. The pre- or post-emergence applications were made with spray applications using 100-300 I/water per hectare. The growth stage of the crops species at the time of application are reported in the result tables. The dose rates of the herbicidal active ingredients applied alone respective in sequential application are also described in the result tables.
(§3) The assessments have been done via visual ratings (0-100% scale) or counting. The trials have been harvested after crops reached the full maturity. After the harvest the total weight of kernels/seeds/beets per plot was measured. The results are reported as means over 2-4 replications. The time between applications and assessments or countings/harvest are described in the result tables as well.

[2] = tested on: soybeans; assay: Field trial: grain yield of soybeans, postemergence application of Cyprosulfamide; details: 100 g ai/ha
Excerpt: as §1, §2, §3

[3] = tested on: spring wheat; assay: Field trial: grain yield of spring wheat, postemergence application of Cyprosulfamide
Excerpt: as §1, §2, §3

[4] = tested on: corn; assay: Field trial: grain yield of corn, sequential application of Cyprosulfamide
Excerpt: (§4) The trials have been carried out under natural field conditions (plot trials, 10 square meter plots, 2-4 replications). The applications have been done with seed treatment, pre- or post-emergence treatments straight (alone, 1 application) or sequential treatments e.g. seed treatment followed by pre-emergence and/or post-emergence spray applications. The pre- or post-emergence applications were made with spray applications using 100-300 I/water per hectare. The growth stage of the crops species at the time of application are reported in the result tables. The dose rates of the herbicidal active ingredients applied alone respective in sequential application are also described in the result tables. The assessments have been done via visual ratings (0-100% scale) or counting. The trials have been harvested after crops reached the full maturity. After the harvest the total weight of kernels/seeds/beets per plot was measured. The results are reported as means over 2-4 replications. The time between applications and assessments or countings/harvest are described in the result tables as well. The active ingredients have been applied to the untreated, dry seeds together with a carrier. After a short period of time to let the seeds dry, they were ready to be sown in the pot or field using standard equipments.

[5] = tested on: rice plants; assay: Field trial: germination and emergence of rice plants after seed treatment with Cyprosulfamide
Excerpt: as §4

[6] = tested on: corn; assay: Field trial: biomass yield and plant density of corn, sequential application of Cyprosulfamide; details: 0.15 g ai/kg seed fb 3 × 50 g ai/ha post, 98 days after emergence
Excerpt: as §4

[7] = tested on: sugarbeet; assay: Field trial: sugar and beet yield of sugarbeet, sequential application of Cyprosulfamide; details: 0.15 mg ai/seed fb 3 × 50 g ai/ha post, 44 days after last postemergence treatment
Excerpt: as §4

[8] = tested on: winter wheat; assay: Field trial: grain yield (g/1000 kernel) of winter wheat, seed treatment with Cyprosulfamide; details: 1 g ai/kg seed
Excerpt: as §4

[9] = tested on: canola; assay: Field trial: grain yield of canola, sequential application of Cyprosulfamide
Excerpt: as §4

[10] = tested on: canola; assay: Field trial: grain yield of canola, postemergence treatment with Cyprosulfamide
Excerpt: as §1, §2, §3

[11] = tested on: rice; assay: Field trial: grain yield of rice, sequential application of Cyprosulfamide
Excerpt: as §4

[12] = tested on: corn (maize); assay: Field trial: grain yield of corn (maize) after seed treatment with Cyprosulfamide; details: for Difference(%) vs. UTC / Relative %: corn (maize) grain yield; for Relative %: UTC = 100%; for Yield (grain yield at harvest): corn (maize), seed treatment prior planting, 110 days after planting (short season variety)
Excerpt: as §4

[13] = tested on: spring wheat; assay: Field trial: gluten content of spring wheat grains, postemergence application of Cyprosulfamide; details: 35 days after application
Excerpt: as §1, §2, §3

[14] = tested on: corn; assay: Field trial: grain yield of corn, postemergence application of Cyprosulfamide
Excerpt: as §1, §2, §3

[15] = tested on: cotton; assay: Field trial: lint yield of cotton, postemergence application of Cyprosulfamide; details: 100 g ai/ha
Excerpt: as §1, §2, §3

[16] = tested on: spring wheat; assay: Field trial: grain yield of spring wheat, postemergence cyprosulfamide (CPA) + epoxiconazole (EPC)
Excerpt: as §1, §2, §3

[17] = tested on: spring oilseed rape (canola); assay: Field trial: grain yield of spring oilseed rape (canola), postemergence CPA + tebuconazole (TBC)
Excerpt: as §1, §2, §3

SMILES: COc1ccccc1C(=O)NS(=O)(=O)c1ccc(C(=O)NC2CC2)cc1 [Cyprosulfamide, cyprosulfamide]
- Difference(%) vs. UTC ([1]; winter wheat grain yield, 100 g ai/ha preemergence): +11%
- Relative % ([1]; winter wheat grain yield, 100 g ai/ha preemergence, UTC = 100%): 111%
- Yield (grain yield at harvest) ([1]; winter wheat, preemergence autumn, 100 g ai/ha, 247 days after application): 5.88 t/ha
- Difference(%) vs. UTC ([2]; soybean grain yield): +5%
- Relative ([2]; soybean grain yield, UTC = 100%): 105%
- Yield (grain yield at harvest) ([2]; soybeans, postemergence preflowering (GS 60), 45 days after application): 2.78 t/ha
- Difference(%) vs. UTC ([3]; spring wheat grain yield, 100 g ai/ha postemergence): +8%
- Yield (grain yield at harvest) ([3]; spring wheat, postemergence at beginning of emergence of the ears (GS49), 100 g ai/ha, 48 days after application): 3.83 t/ha
- Difference(%) vs. UTC ([4]; corn grain yield, sequential application): +38%
- Relative ([4]; corn grain yield, sequential application, UTC = 100%): 138%
- Yield (grain yield at harvest) ([4]; corn, 0.15 g ai/kg seed fb 3 × 50 g ai/ha post (2-4 leaves, 6-8 leaves, preflowering), 98 days after emergence): 14.1 t/ha
- Difference(%) vs. UTC ([5]; rice plants/10 m^2, 0.5 g ai/kg seed): +23%
- Relative ([5]; rice plants/10 m^2, 0.5 g ai/kg seed, UTC = 100%): 123%
- plants/10 m^2 (germination and emergence) ([5]; rice, seed treatment 0.5 g ai/kg seed, 12 days after emergence): 208 plants/10 m^2
- Yield: Biomass yield at harvest ([6]; UTC 6.0): 7.5 t/ha
- Yield: Plant density at harvest ([6]; UTC 14): 17.3 plants/sqm
- Yield of beets (storage root/body) by weight at harvest ([7]; UTC 59.3): 61.3 t/ha
- Sugar Yield at harvest ([7]; UTC 5778): 6110 kg/ha
- Difference(%) vs. UTC ([8]; winter wheat g/1000 kernel): +8%
- Relative ([8]; winter wheat g/1000 kernel, UTC = 100%): 108%
- Yield (grain yield at harvest) ([8]; winter wheat, seed treatment prior planting, 290 days after planting): 39.2 g/1000 kernel
- Difference(%) vs. UTC ([9]; canola grain yield, sequential application): +24%
- Relative ([9]; canola grain yield, sequential application, UTC = 100%): 124%
- Yield (grain yield at harvest) ([9]; canola, 0.5 g ai/kg seed fb 3 × 50 g ai/ha post (4-6 leaves, stem elongation, beginning of flowering), 63 days after application): 3.47 t/ha
- Difference(%) vs. UTC ([10]; canola grain yield, 100 g ai/ha postemergence): +19%
- Relative ([10]; canola grain yield, 100 g ai/ha postemergence, UTC = 100%): 119%
- Yield (grain yield at harvest) ([10]; canola, postemergence GS 52 pre flowering, 100 g ai/ha, 63 days after treatment): 2.62 t/ha
- Difference(%) vs. UTC ([11]; rice grain yield, sequential application): +5%
- Relative ([11]; rice grain yield, sequential application, UTC = 100%): 105%
- Yield (grain yield at harvest) ([11]; rice, 0.5 g ai/kg seed fb 3 × 50 g ai/ha post, 75 days after last application): 5.74 t/ha
- Difference(%) vs. UTC ([12]; 0.15 mg ai/seed): +12%
- Relative % ([12]; 0.15 mg ai/seed): 112%
- Difference(%) vs. UTC ([12]; 0.225 mg ai/seed): +13%
- Relative % ([12]; 0.225 mg ai/seed): 113%
- Yield (grain yield at harvest) ([12]; 0.15 mg ai/seed): 8.32 t/ha
- Yield (grain yield at harvest) ([12]; 0.225 mg ai/seed): 8.39 t/ha
- Yield Relative: relative gluten content in harvested grains ([13]; 100 g ai/ha at ear emergence, UTC = 100%): 109%
- Yield: gluten content (absolute) in harvested grains ([13]; postemergence at ear emergence, 100 g ai/ha): 30.9
- Difference(%) vs. UTC ([14]; corn grain yield, 100 g ai/ha postemergence): +28%
- Relative ([14]; corn grain yield, 100 g ai/ha postemergence, UTC = 100%): 128%
- Yield (grain yield at harvest) ([14]; corn, postemergence at 6-8 leaves, 100 g ai/ha, 130 days after application): 5.60 t/ha
- Difference(%) vs. UTC ([15]; cotton lint yield): +16%
- Relative ([15]; cotton lint yield, UTC = 100%): 116%
- Yield t/ha (lint) ([15]; cotton lints at harvest, postemergence preflowering (GS 55), 90 days after application): 0.254 t/ha

SMILES: Fc1ccc([C@]2(Cn3cncn3)O[C@H]2c2ccccc2Cl)cc1 (racemic) [EPC, epoxiconazole]
- Difference(%) vs. UTC ([16]; spring wheat grain yield, EPC 125, CPA + EPC 100 + 125 g ai/ha): +9.7%
- Relative % ([16]; spring wheat grain yield, EPC 125, CPA + EPC 100 + 125 g ai/ha, UTC = 100%): 109.7%^
- Yield (grain yield at harvest) ([16]; spring wheat, post-emergence spring, flag leaf sheath opening, EPC 125 g ai/ha, CPA + EPC 100 + 125 g ai/ha, 55 days after application, UTC 1.84): 2.02 t/ha

SMILES: CC(C)(C)C(O)(CCc1ccc(Cl)cc1)Cn1cncn1 (centres unmarked) [TBC, tebuconazole]
- Difference(%) vs. UTC ([17]; canola grain yield, TBC 150, CPA + TBC 100 + 150 g ai/ha): +1.8%
- Relative % ([17]; canola grain yield, TBC 150, CPA + TBC 100 + 150 g ai/ha, UTC = 100%): 101.8%
- Yield (grain yield at harvest) ([17]; spring oilseed rape (canola), post-emergence spring, beginning of flowering, TBC 150 g ai/ha, CPA + TBC 100 + 150 g ai/ha, 92 days after application, UTC 3.91): 3.91 t/ha
